Measurements as given in patent US10457691B2, “Macrocyclic kinase inhibitors and uses thereof” (Dana-Farber Cancer Institute, Inc., priority 2014, dated 2019).

Experiments:
Assay type in all cases: biochemical
[1] = target: DYRK3 (Homo sapiens, UniProt O43781); assay: Protein kinase assay ([γ-32P] ATP), DYRK3; conditions: read-out: Activity of the protein kinase when treated with compound I-1 (% control)
Procedure: (§1) In another set of experiments, the activities of the compounds described herein against various protein kinases were determined according to the methods reported in Hastie et al., Nature Protocols, 2006, 1, 968-971.
(§2) Enzyme dilution buffer. This buffer consisted of 50 mM Tris-HCl, pH 7.5, 0.1 mM EGTA, 1 mg ml^−1 bovine serum albumin and 0.1% (vol/vol) 2-mercaptoethanol.
(§3) 10× concentrated assay buffer. An assay buffer of 500 mM Tris-HCl, pH 7.5, 1 mM EGTA, and 100 mM magnesium acetate was used for assay of a wide variety of protein kinases. In some experiments, other cofactors were included (e.g., calcium ions and calmodulin were included for assay of calcium-calmodulindependent protein kinases).
(§4) 1 mM [γ-^32P] ATP. The specific activity of the [γ-^32P] ATP solution was 1×10^5 to 1×10^6 c.p.m. per nmol depending on what was needed to produce an optimal signal/noise ratio. […] To measure the concentration of ATP, a sample of such a stock solution was diluted to 20 μM, and the absorbance of the diluted sample was measured at 259 nm. The absorbance of a 20-μM stock solution of ATP at 259 nm was about 0.31. […] ATP to produce a radioactivity of 1×10^5 to 1×10^6 c.p.m. per nmol. […]
(§5) 13) Measure radioactivity in the samples by Cerenkov counting (e.g., without liquid scintillation fluid) in a liquid scintillation counter using a “^32P program”. […]

[2] = target: HER4 (Homo sapiens, UniProt Q15303); assay: Protein kinase assay ([γ-32P] ATP), HER4; conditions: read-out: Activity of the protein kinase when treated with compound I-1 (% control)
Procedure: as §1, §2, §3, §4, §5

[3] = target: HIPK1 (Homo sapiens, UniProt Q86Z02); assay: Protein kinase assay ([γ-32P] ATP), HIPK1; conditions: read-out: Activity of the protein kinase when treated with compound I-1 (% control)
Sequence of HIPK1 (Q86Z02 whole entry): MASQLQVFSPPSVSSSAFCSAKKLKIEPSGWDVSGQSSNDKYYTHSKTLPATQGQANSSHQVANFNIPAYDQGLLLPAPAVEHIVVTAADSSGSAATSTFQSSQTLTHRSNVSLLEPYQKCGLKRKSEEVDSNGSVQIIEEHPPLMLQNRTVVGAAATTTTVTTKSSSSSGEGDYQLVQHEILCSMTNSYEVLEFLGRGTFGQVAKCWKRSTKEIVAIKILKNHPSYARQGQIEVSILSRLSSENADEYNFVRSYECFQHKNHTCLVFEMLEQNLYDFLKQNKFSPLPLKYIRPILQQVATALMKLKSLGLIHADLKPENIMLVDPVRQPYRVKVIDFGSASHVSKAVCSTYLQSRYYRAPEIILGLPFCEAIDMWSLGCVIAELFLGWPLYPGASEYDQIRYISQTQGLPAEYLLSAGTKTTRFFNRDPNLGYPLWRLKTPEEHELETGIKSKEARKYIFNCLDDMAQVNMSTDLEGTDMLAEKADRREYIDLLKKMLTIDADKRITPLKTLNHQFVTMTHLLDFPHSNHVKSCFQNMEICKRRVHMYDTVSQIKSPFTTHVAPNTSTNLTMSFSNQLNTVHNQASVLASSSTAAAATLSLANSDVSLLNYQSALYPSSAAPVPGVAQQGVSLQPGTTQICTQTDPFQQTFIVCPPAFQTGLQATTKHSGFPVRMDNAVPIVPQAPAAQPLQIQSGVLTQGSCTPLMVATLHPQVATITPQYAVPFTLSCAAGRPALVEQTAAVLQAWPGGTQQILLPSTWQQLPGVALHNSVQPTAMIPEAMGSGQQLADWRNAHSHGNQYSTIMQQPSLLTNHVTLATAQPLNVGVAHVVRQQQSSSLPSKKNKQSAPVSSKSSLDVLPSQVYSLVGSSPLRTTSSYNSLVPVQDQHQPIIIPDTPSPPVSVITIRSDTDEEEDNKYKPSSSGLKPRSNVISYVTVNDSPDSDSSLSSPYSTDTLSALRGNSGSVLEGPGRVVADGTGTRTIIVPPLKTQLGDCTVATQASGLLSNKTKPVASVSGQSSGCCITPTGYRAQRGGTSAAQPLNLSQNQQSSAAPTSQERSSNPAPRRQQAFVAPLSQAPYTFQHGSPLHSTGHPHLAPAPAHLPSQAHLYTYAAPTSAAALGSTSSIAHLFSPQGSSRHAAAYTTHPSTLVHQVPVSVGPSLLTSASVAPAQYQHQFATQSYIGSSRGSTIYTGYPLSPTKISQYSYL
Procedure: as §1, §2, §3, §4, §5

[4] = target: IR (Homo sapiens, UniProt P06213); assay: Protein kinase assay ([γ-32P] ATP), IR; conditions: read-out: Activity of the protein kinase when treated with compound I-1 (% control)
Procedure: as §1, §2, §3, §4, §5

[5] = target: JAK2 (Homo sapiens, UniProt O60674); assay: Protein kinase assay ([γ-32P] ATP), JAK2; conditions: read-out: Activity of the protein kinase when treated with compound I-1 (% control)
Procedure: as §1, §2, §3, §4, §5

[6] = target: JNK2 (Homo sapiens, UniProt P45984); assay: Protein kinase assay ([γ-32P] ATP), JNK2; conditions: read-out: Activity of the protein kinase when treated with compound I-1 (% control)
Procedure: as §1, §2, §3, §4, §5

[7] = target: Lck (Homo sapiens, UniProt P06239); assay: Protein kinase assay ([γ-32P] ATP), Lck; conditions: read-out: Activity of the protein kinase when treated with compound I-1 (% control)
Procedure: as §1, §2, §3, §4, §5

[8] = target: MARK1 (Homo sapiens, UniProt Q9P0L2); assay: Protein kinase assay ([γ-32P] ATP), MARK1; conditions: read-out: Activity of the protein kinase when treated with compound I-1 (% control)
Procedure: as §1, §2, §3, §4, §5

[9] = target: MARK2 (Homo sapiens, UniProt Q7KZI7); assay: Protein kinase assay ([γ-32P] ATP), MARK2; conditions: read-out: Activity of the protein kinase when treated with compound I-1 (% control)
Procedure: as §1, §2, §3, §4, §5

[10] = target: MEKK1 (Homo sapiens, UniProt Q13233); assay: Protein kinase assay ([γ-32P] ATP), MEKK1; conditions: read-out: Activity of the protein kinase when treated with compound I-1 (% control)
Sequence of MEKK1 (Q13233 whole entry): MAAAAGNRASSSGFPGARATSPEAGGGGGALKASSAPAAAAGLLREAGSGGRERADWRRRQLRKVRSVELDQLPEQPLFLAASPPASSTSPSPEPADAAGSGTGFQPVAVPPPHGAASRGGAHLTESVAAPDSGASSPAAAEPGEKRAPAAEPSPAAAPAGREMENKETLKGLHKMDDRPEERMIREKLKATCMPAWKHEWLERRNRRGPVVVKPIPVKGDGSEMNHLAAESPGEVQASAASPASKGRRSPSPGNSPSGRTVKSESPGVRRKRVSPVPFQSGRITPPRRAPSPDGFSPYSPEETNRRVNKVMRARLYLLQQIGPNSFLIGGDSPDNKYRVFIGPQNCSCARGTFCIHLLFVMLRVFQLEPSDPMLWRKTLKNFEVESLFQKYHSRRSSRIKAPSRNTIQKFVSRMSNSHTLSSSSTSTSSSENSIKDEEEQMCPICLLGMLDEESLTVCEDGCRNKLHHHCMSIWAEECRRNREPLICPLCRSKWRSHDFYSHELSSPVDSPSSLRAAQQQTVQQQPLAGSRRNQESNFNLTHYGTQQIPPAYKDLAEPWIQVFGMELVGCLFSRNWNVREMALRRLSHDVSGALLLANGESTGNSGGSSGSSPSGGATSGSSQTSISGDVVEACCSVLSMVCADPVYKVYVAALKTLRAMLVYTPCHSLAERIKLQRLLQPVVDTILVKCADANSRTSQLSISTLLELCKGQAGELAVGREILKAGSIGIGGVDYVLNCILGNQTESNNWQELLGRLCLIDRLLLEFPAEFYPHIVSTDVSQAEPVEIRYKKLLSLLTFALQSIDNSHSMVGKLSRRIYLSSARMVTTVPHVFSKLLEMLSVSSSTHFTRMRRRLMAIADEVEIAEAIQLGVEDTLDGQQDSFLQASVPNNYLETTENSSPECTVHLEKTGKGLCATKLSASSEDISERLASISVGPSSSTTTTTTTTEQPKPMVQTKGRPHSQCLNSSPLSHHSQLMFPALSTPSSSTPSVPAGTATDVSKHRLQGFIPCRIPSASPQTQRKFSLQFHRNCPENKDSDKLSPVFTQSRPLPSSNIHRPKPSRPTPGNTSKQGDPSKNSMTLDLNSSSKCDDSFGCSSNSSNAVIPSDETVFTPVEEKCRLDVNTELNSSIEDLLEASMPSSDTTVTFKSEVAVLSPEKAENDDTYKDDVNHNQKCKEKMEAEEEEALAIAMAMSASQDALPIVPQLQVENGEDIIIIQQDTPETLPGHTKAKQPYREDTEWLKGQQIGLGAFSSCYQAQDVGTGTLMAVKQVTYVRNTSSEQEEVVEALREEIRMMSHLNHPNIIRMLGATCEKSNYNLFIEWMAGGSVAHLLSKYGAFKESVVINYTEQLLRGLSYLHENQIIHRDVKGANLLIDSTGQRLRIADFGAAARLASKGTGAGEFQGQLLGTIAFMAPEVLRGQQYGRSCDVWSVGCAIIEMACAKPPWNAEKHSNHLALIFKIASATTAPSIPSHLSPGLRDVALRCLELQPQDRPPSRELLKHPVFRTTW
Procedure: as §1, §2, §3, §4, §5

[11] = target: MLK1 (Homo sapiens, UniProt P80192); assay: Protein kinase assay ([γ-32P] ATP), MLK1; conditions: read-out: Activity of the protein kinase when treated with compound I-1 (% control)
Procedure: as §1, §2, §3, §4, §5

[12] = target: MST3 (Homo sapiens, UniProt Q9Y6E0); assay: Protein kinase assay ([γ-32P] ATP), MST3; conditions: read-out: Activity of the protein kinase when treated with compound I-1 (% control)
Sequence of MST3 (Q9Y6E0 whole entry): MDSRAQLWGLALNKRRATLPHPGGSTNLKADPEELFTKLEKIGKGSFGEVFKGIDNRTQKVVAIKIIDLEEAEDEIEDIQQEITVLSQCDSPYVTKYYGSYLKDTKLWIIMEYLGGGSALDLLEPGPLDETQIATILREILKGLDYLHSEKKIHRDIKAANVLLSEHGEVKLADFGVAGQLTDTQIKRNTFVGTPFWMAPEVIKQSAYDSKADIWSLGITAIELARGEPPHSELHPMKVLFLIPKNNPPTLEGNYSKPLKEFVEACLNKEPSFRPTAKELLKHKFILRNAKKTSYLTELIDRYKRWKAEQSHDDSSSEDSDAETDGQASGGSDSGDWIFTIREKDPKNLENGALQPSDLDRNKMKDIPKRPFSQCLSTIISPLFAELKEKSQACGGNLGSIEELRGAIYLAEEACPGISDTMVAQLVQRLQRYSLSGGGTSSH
Procedure: as §1, §2, §3, §4, §5

[13] = target: PIM1 (Homo sapiens, UniProt P11309); assay: Protein kinase assay ([γ-32P] ATP), PIM1; conditions: read-out: Activity of the protein kinase when treated with compound I-1 (% control)
Sequence of PIM1 (P11309 whole entry): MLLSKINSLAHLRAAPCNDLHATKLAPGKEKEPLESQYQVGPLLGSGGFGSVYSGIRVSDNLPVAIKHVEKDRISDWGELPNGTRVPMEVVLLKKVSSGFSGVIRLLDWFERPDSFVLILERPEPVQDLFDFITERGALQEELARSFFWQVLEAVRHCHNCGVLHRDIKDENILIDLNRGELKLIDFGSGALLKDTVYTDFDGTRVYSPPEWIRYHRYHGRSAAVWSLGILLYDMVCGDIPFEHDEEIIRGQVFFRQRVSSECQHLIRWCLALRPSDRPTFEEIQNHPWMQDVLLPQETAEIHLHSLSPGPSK
Procedure: as §1, §2, §3, §4, §5

[14] = target: PKCa (Homo sapiens, UniProt P17252); assay: Protein kinase assay ([γ-32P] ATP), PKCa; conditions: read-out: Activity of the protein kinase when treated with compound I-1 (% control)
Procedure: as §1, §2, §3, §4, §5

[15] = target: PKD1 (Homo sapiens, UniProt Q15139); assay: Protein kinase assay ([γ-32P] ATP), PKD1; conditions: read-out: Activity of the protein kinase when treated with compound I-1 (% control)
Procedure: as §1, §2, §3, §4, §5

[16] = tested on: ROCK 2; assay: Protein kinase assay ([γ-32P] ATP), ROCK 2
Procedure: as §1, §2, §3, §4, §5

[17] = target: RSK1 (Homo sapiens, UniProt Q15418); assay: Protein kinase assay ([γ-32P] ATP), RSK1; conditions: read-out: Activity of the protein kinase when treated with compound I-1 (% control)
Sequence of RSK1 (Q15418 whole entry, species assumed): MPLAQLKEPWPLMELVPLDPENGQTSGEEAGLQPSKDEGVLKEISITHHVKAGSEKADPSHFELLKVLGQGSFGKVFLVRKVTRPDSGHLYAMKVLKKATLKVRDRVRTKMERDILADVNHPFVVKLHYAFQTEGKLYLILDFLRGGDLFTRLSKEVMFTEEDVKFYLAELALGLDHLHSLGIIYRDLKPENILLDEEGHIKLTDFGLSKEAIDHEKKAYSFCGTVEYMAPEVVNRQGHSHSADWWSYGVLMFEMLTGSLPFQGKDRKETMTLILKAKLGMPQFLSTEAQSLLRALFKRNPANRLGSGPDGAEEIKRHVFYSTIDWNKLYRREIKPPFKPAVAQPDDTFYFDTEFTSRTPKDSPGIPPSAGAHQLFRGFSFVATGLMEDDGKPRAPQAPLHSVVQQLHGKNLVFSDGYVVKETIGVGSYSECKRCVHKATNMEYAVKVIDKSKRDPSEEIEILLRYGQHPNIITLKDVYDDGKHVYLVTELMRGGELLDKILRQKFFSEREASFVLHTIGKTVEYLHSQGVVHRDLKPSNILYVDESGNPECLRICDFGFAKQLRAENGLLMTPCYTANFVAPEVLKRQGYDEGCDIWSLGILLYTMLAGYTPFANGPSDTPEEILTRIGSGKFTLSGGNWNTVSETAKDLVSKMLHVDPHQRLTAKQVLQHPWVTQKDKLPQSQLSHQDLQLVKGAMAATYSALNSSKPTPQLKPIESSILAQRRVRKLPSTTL
Procedure: as §1, §2, §3, §4, §5

[18] = 0.1 μM of compound I-1, DMSO control = 100%
[19] = 1 μM of compound I-1, DMSO control = 100%

With Cc1cccc(C)c1NC(=O)N1C/C=C\COc2cccc(c2)Nc2cc1ncn2 [Compound I-1] the remaining activity at 0.1 µM [1, 18] was 99%, the remaining activity at 1 µM [1, 19] was 87% and the remaining activity at 0.1 µM [2, 18] was 100%. For the same compound, the remaining activity at 1 µM [2, 19] was 71%, the remaining activity at 0.1 µM [3, 18] was 99% and the remaining activity at 1 µM [3, 19] was 82%. It also gave a remaining activity at 0.1 µM [4, 18] of 102%, a remaining activity at 1 µM [4, 19] of 93% and a remaining activity at 0.1 µM [5, 18] of 100%. For the same compound, the remaining activity at 1 µM [5, 19] was 72%, the remaining activity at 0.1 µM [6, 18] was 81% and the remaining activity at 1 µM [6, 19] was 34%. The remaining activity at 0.1 µM [7, 18] was 4%, the remaining activity at 1 µM [7, 19] was 3% and the remaining activity at 0.1 µM [8, 18] was 62%. It also gave a remaining activity at 1 µM [8, 19] of 68%, a remaining activity at 0.1 µM [9, 18] of 102% and a remaining activity at 1 µM [9, 19] of 71%. The remaining activity at 0.1 µM [10, 18] was 96%, the remaining activity at 1 µM [10, 19] was 95% and the remaining activity at 0.1 µM [11, 18] was 60%. For the same compound, the remaining activity at 1 µM [11, 19] was 17%, the remaining activity at 0.1 µM [12, 18] was 91% and the remaining activity at 1 µM [12, 19] was 87%. It also gave a remaining activity at 0.1 µM [13, 18] of 132%, a remaining activity at 1 µM [13, 19] of 93% and a remaining activity at 0.1 µM [14, 18] of 101%. The remaining activity at 1 µM [14, 19] was 91%, the remaining activity at 0.1 µM [15, 18] was 63% and the remaining activity at 1 µM [15, 19] was 29%. For the same compound, the “Activity of the protein kinase when treated with compound I-1 (% control)” value [16, 18] was 95 % control, the “Activity of the protein kinase when treated with compound I-1 (% control)” value [16, 19] was 91 % control and the remaining activity at 0.1 µM [17, 18] was 98%. The remaining activity at 1 µM [17, 19] was 99%.
